From ChEMBL document CHEMBL5316297, “Mechanistic Insight of Synthesized 1,4-Dihydropyridines as an Antidiabetic Sword against Reactive Oxygen Species” (J Med Chem, 2023) come the findings set out here.

Data set [1] is described as follows: Acute toxicity in Swiss albino mouse assessed as effect on motor alterations up to 2000 mg/kg, po administered for 14 days. The class given is organism-based. The conditions noted are these: in vivo, 336 h, time 14 day.
Data set [2] is described as follows: Acute toxicity in Swiss albino mouse assessed as toxic symptoms up to 2000 mg/kg, po administered for 14 days. The conditions noted are these: in vivo, 336 h, time 14 day. The class given is organism-based.
Data set [3] concerns Mus musculus. The experiment in a line: Antidiabetic activity against high fat diet-STZ-induced diabetic Swiss albino mouse model assessed as reduction in blood glucose level at 0.2 mmol/Kg/day, po administered for 14 days relative to control. The class given is functional. Set-up: scale not given: the % may be the effect or the level left. The conditions noted are these: time 14 day.

Data set [4] is described as follows: Toxicity in high fat diet-STZ-induced diabetic Swiss albino mouse model assessed as changes in body weight at 0.2 mmol/Kg/day, po administered for 14 days (reference value: 26.6 to 27.8 g). The format is organism-based. To be noted: in vivo, 336 h, time 14 day.
The test system of data set [5] is Mus musculus. Description: Antidiabetic activity against high fat diet-STZ-induced diabetic Swiss albino mouse model assessed as reduction in blood glucose level at 0.2 mmol/Kg/day, po administered for 14 days. The class given is functional. To be noted: time 14 day.
A short description of data set [6]: Acute toxicity in Swiss albino mouse assessed as effect on mortality up to 2000 mg/kg, po administered for 14 days. The format is organism-based. The conditions noted are these: in vivo, 336 h, time 14 day.
The test system of data set [7] is Mus musculus. Description: Antidiabetic activity against high fat diet-STZ-induced diabetic Swiss albino mouse model assessed as reduction in blood glucose level at 0.2 mmol/Kg/day, po administered for 14 days relative to glimepiride. The format is functional. Set-up: scale not given: the % may be the effect or the level left. The conditions noted are these: time 14 day.

Data set [8] in a line: Acute toxicity in Swiss albino mouse assessed as effect on behavioural change up to 2000 mg/kg, po administered for 14 days. The format is organism-based. To be noted: in vivo, 336 h, time 14 day.

Take `COCCOC(=O)C1=C(C)NC(C)=C(C(=O)OC)C1c1cccc2c1OCO2` (centres undefined): the Activity entry in data set [1] is “Non-Toxic”; in data set [2] it was “Non-Toxic”; in data set [3] it was 13.4%; in data set [4] it was 28.3 g; in data set [5], 258.24 mg/dL; in data set [6], “Non-Toxic”. For the same compound, the Activity is 40% in data set [7] and “Non-Toxic” in data set [8].
`COCCOC(=O)C1=C(C)NC(C)=C(C(=O)OC)C1c1ccc2c(c1)OCO2` (centres undefined): the Activity result in data set [1] was “Non-Toxic”; in data set [2], “Non-Toxic”; in data set [3] it was 12.73%; in data set [4] it was 28.6 g; in data set [5], 260.24 mg/dL; in data set [6], “Non-Toxic”. Also, the Activity in data set [7] is 38%; in data set [8], “Non-Toxic”.
`CCOC(=O)C1=C(C)NC(C)=C(C(=O)OCC)C1c1ccc2c(c1)OCCO2`: the Activity entry in data set [1] is “Non-Toxic”; in data set [2] it was “Non-Toxic”; in data set [3], 49.58%; in data set [4] it was 26.8 g; in data set [5], 150.35 mg/dL; in data set [6] it was “Non-Toxic”. For the same compound, the Activity in data set [7] is 148%; in data set [8], “Non-Toxic”.
Take `COC(=O)C1=C(C)NC(C)=C(C(=O)OC(C)C)C1c1ccc2c(c1)OCO2` (centres undefined): the Activity entry in data set [1] was “Non-Toxic”; in data set [2] it was “Non-Toxic”; in data set [3], 18.09%; in data set [4] it was 28.3 g; in data set [5], 244.26 mg/dL; in data set [6], “Non-Toxic”. In addition, the Activity in data set [7] is given as 54%; in data set [8] it was “Non-Toxic”.
Take `CCOC(=O)C1=C(C)NC(C)=C(C(=O)OCc2ccccc2)C1c1ccc2c(c1)OCO2` (centres undefined): the Activity entry in data set [1] was “Non-Toxic”; in data set [2] it was “Non-Toxic”; in data set [3], 43.21%; in data set [4], 27.3 g; in data set [5], 169.35 mg/dL; in data set [6], “Non-Toxic”. Besides, the Activity in data set [7] was 129%; in data set [8], “Non-Toxic”.
On to `COCCOC(=O)C1=C(C)NC(C)=C(C(=O)OCCOC)C1c1cccc2c1OCO2`, for which the Activity result in data set [1] was “Non-Toxic”; in data set [2], “Non-Toxic”; in data set [3], 30.11%; in data set [4], 27 g; in data set [5], 208.41 mg/dL; in data set [6], “Non-Toxic”. The Activity in data set [7] was 90%; in data set [8], “Non-Toxic”.
Turning to `COC(=O)C1=C(C)NC(C)=C(C(=O)OCc2ccccc2)C1c1ccc2c(c1)OCO2` (centres undefined), the Activity entry in data set [1] was “Non-Toxic”; in data set [2], “Non-Toxic”; in data set [3], 42.88%; in data set [4], 27.4 g; in data set [5], 170.33 mg/dL; in data set [6], “Non-Toxic”. The values for the Activity in data set [7] and in data set [8] were 128% and “Non-Toxic”, respectively.
With `CCOC(=O)C1=C(C)NC(C)=C(C(=O)OC)C1c1ccc2c(c1)OCO2` (centres undefined), the Activity entry in data set [1] was “Non-Toxic”; in data set [2], “Non-Toxic”; in data set [3], 53.6%; in data set [4] it was 27.4 g; in data set [5], 138.36 mg/dL; in data set [6] it was “Non-Toxic”. Further, the Activity is on record as 160% in data set [7] and “Non-Toxic” in data set [8].
For the compound `CCOC(=O)C1=C(C)NC(C)=C(C(=O)OC(C)C)C1c1ccc2c(c1)OCO2` (centres undefined), the Activity result is “Non-Toxic” in data set [1]; “Non-Toxic” in data set [2]; 0.11% in data set [3]; 29.2 g in data set [4]; 297.87 mg/dL in data set [5]; “Non-Toxic” in data set [6]. Besides, the Activity is given as below 1% in data set [7] and “Non-Toxic” in data set [8].
In the case of `CCOC(=O)C1=C(C)NC(C)=C(C(=O)OC(C)(C)C)C1c1ccc2c(c1)OCO2` (centres undefined), the Activity result in data set [1] was “Non-Toxic”; in data set [2], “Non-Toxic”; in data set [3], 0.1%; in data set [4], 27.9 g; in data set [5], 297.9 mg/dL; in data set [6], “Non-Toxic”. Moreover, the Activity in data set [7] is on record as below 1%; in data set [8], “Non-Toxic”.
For the compound `CC1=C(C(=O)OCc2ccccc2)C(c2ccc3c(c2)OCO3)C(C(=O)OCc2ccccc2)=C(C)N1`, the Activity in data set [3] came out at 37.86%; in data set [4], 27 g; in data set [5] it was 185.3 mg/dL; in data set [7] it was 113%.
As for `CCOC(=O)C1=C(C)NC(C)=C(C(=O)OC(C)C)C1c1cccc2c1OCO2` (centres undefined), the Activity entry is “Non-Toxic” in data set [1]; “Non-Toxic” in data set [2]; 0.27% in data set [3]; 28.9 g in data set [4]; 297.39 mg/dL in data set [5]; “Non-Toxic” in data set [6]. Further, the figures for the Activity in data set [7] and in data set [8] were below 1% and “Non-Toxic”, respectively.
`CCOC(=O)C1=C(C)NC(C)=C(C(=O)OCc2ccccc2)C1c1cccc2c1OCO2` (centres undefined): the Activity result in data set [1] was “Non-Toxic”; in data set [2] it was “Non-Toxic”; in data set [3] it was 44.22%; in data set [4], 27.2 g; in data set [5] it was 166.34 mg/dL; in data set [6] it was “Non-Toxic”. For the same compound, the Activity is 132% in data set [7] and “Non-Toxic” in data set [8].
`CC1=C(C(=O)OC(C)(C)C)C(c2ccc3c(c2)OCO3)C(C(=O)OC(C)(C)C)=C(C)N1`: the Activity in data set [3] is 0.61%; in data set [4] it was 26.9 g; in data set [5], 296.38 mg/dL; in data set [7], below 1%.
With `COC(=O)C1=C(C)NC(C)=C(C(=O)OC(C)(C)C)C1c1ccc2c(c1)OCO2` (centres undefined), the Activity result was “Non-Toxic” in data set [1]; “Non-Toxic” in data set [2]; 0.39% in data set [3]; 29.1 g in data set [4]; 297.04 mg/dL in data set [5]; “Non-Toxic” in data set [6]. The figures for the Activity in data set [7] and in data set [8] were below 1% and “Non-Toxic”, respectively.
For the compound `CC1=C(C(=O)OC(C)C)C(c2cccc3c2OCO3)C(C(=O)OC(C)C)=C(C)N1`, the Activity result is “Non-Toxic” in data set [1]; “Non-Toxic” in data set [2]; 10.05% in data set [3]; 28.9 g in data set [4]; 268.23 mg/dL in data set [5]; “Non-Toxic” in data set [6]. The Activity in data set [7] is listed as 30%; in data set [8], “Non-Toxic”.
With `COCCOC(=O)C1=C(C)NC(C)=C(C(=O)OCCOC)C1c1ccc2c(c1)OCO2`, the Activity in data set [3] came out at 30.11%; in data set [4] it was 27.4 g; in data set [5] it was 208.41 mg/dL; in data set [7], 90%.
